Measurements: patent US20060247231A1, “Amide and ester matrix metalloproteinase inhibitors” (Warner-Lambert Company LLC, priority 2003, published 2006)

Experiments:
Type in all cases: biochemical
MMP-8FL = target: T1, MMP-8FL (Homo sapiens, UniProt P22894); experiment: MMP-8 full-length inhibition (Biological Methods 1, 2, or 5)
T1 construct: MMP-8 full-length
Experimental: (§1) Thiopeptolide substrates show virtually no decomposition or hydrolysis at or below neutral pH in the absence of a matrix metalloproteinase enzyme. A typical thiopeptolide substrate commonly utilized for assays is Ac-Pro-Leu-Gly-thioester-Leu-Leu-Gly-OEt. A 100 μL assay mixture will contain a suitable amount of the MMP enzyme such as an amount described in Ye Qi-Zhuang, et al., 1996, supra, 50 mM of N-2-hydroxyethylpiperazine-N′-2-ethanesulfonic acid buffer (“HEPES,” pH 7.0), 10 mM CaCl2, 100 μM thiopeptolide substrate, and 1 mM 5,5′-dithio-bis-(2-nitro-benzoic acid) (DTNB). The thiopeptolide substrate concentration may be varied, for example from 10 to 800 μM to obtain Km and Kcat values. The change in absorbance at 405 nm is monitored on a Thermo Max microplate reader (molecular Devices, Menlo Park, Calif.) at room temperature (22° C.). The calculation of the amount of hydrolysis of the thiopeptolide substrate is based on E412=13600 M^−1 cm^−1 for the DTNB-derived product 3-carboxy-4-nitrothiophenoxide. Assays are carried out with and without matrix metalloproteinase inhibitor compounds, and the amount of hydrolysis is compared for a determination of inhibitory activity of the test compounds.
(§2) Test compounds are evaluated at various concentrations in order to determine their respective IC50 values, the micromolar concentration of compound required to cause a 50% inhibition of catalytic activity of the respective enzyme.
(§3) Test compounds can be evaluated according to Biological Method 1 at various concentrations in order to determine their respective IC50 values, typically the micromolar concentration of compound required to cause a 50% inhibition of the hydrolytic activity of the respective enzyme.
(§4) Some representative compounds of Formula I have been evaluated according to Biological Method 1 for their ability to inhibit MMP-13 and other MMP enzymes, including MMP-1, MMP-2, MMP-3, MMP-7, MMP-8, MMP-9, MMP-12, MMP14, and MMP-17. Inhibitor activity versus other MMPs with the compounds may be determined using, for example, MMP-1FL, which refers to full length interstitial collagenase; MMP-2FL, which refers to full length Gelatinase A; MMP-3CD, which refers to the catalytic domain of stromelysin; MMP-7FL, which refers to full length matrilysin; MMP-9FL, which refers to full length Gelatinase B; MMP-13CD, which refers to the catalytic domain of collagenase 3; and MMP-14CD, which refers to the catalytic domain of MMP-14.
(§5) The method of Biological Method 1, except thiopeptolide substrate is replaced with a fluorigenic peptide such as Fluorigenic peptide-1.
(§6) Shown below in Table 1 are the inhibition of MMP-13 catalytic domain, expressed as IC50's, for the compounds of Compound Examples A1 to A8, B1 to B4, and C1 in the column labelled “MMP-13CD IC50 (μM)”.

[1] = target: T2, MMP-13 catalytic domain (MMP-13CD) (Homo sapiens, UniProt P45452); experiment: MMP-13 catalytic domain inhibition (Biological Methods 1, 2, or 5)
T2 construct: particularly MMP-13 catalytic domain (“MMP-13CD”)
Experimental: as §1, §2, §3, §4, §5
Fluorigenic peptide-1 substrate based assay for identifying compounds of Formula I as allosteric inhibitors of MMP-13:
• 50 mM HEPES buffer (pH 7.0) • 10 mM CaCl2 • 10 μM fluorigenic peptide-1 (“FP1”) substrate • 0 or 15 mM acetohydroxamic acid (AcNHOH)=1 Kd • 2% DMSO (with or without inhibitor test compound) • 0.5 nM MMP-13CD enzyme Stock Solutions: • 1) 10× assay buffer: 500 mM HEPES buffer (pH 7.0) plus 100 mM CaCl2 • 2) 10 mM FP1 substrate: (Mca)-Pro-Leu-Gly-Leu-(Dnp)-Dpa-Ala-Arg-NH2 (Bachem, M-1895; “A novel coumarin-labeled peptide for sensitive continuous assays of the matrix metalloproteinases,” Knight C. G., Willenbrock F., and Murphy, G., FEBS Lett., 1992;296:263-266). Is prepared 10 mM stock by dissolving 5 mg FP1 in 0.457 mL DMSO. • 3) 3 M AcNHOH: Is prepared by adding 4 mL H2O and 1 mL 10× assay buffer to 2.25 g AcNHOH (Aldrich 15,903-4). Adjusting pH to 7.0 with NaOH. Diluting volume to 10 mL with H2O. Final solution will contain 3 M AcNHOH, 50 mM HEPES buffer (pH 7.0), and 10 mM CaCl2. • 4) AcNHOH dilution buffer: 50 mM HEPES buffer (pH 7.0) plus 10 mM CaCl2 • 5) MMP-13CD enzyme: Stock concentration=250 nM. • 6) Enzyme dilution buffer: 50 mM HEPES buffer (pH 7.0), 10 mM CaCl2, and 0.005% BRU 35 detergent (Calbiochem 203728; Protein Grade, 10%) Procedure (For One 96-well Microplate): • A. Prepared assay mixture: […]

[2] = target: T3, MMP-7FL (full length matrilysin) (Homo sapiens, UniProt P09237); experiment: MMP-7 full-length inhibition (Biological Methods 1, 2, or 5)
T3 sequence (P09237 95-267): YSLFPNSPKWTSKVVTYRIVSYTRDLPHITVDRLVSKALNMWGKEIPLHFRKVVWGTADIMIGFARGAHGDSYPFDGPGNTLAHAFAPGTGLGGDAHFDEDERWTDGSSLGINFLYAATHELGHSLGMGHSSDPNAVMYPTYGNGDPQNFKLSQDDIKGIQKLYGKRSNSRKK
Experimental: (§7) Thiopeptolide substrates show virtually no decomposition or hydrolysis at or below neutral pH in the absence of a matrix metalloproteinase enzyme. A typical thiopeptolide substrate commonly utilized for assays is Ac-Pro-Leu-Gly-thioester-Leu-Leu-Gly-OEt. A 100 μL assay mixture will contain a suitable amount of the MMP enzyme such as an amount described in Ye Qi-Zhuang, et al., 1996, supra, 50 mM of N-2-hydroxyethylpiperazine-N′-2-ethanesulfonic acid buffer (“HEPES,” pH 7.0), 10 mM CaCl2, 100 μM thiopeptolide substrate, and 1 mM 5,5′-dithio-bis-(2-nitro-benzoic acid) (DTNB). The thiopeptolide substrate concentration may be varied, for example from 10 to 800 μM to obtain Km and Kcat values. The change in absorbance at 405 nm is monitored on a Thermo Max microplate reader (molecular Devices, Menlo Park, Calif.) at room temperature (22° C.). The calculation of the amount of hydrolysis of the thiopeptolide substrate is based on E412=13600 M^−1 cm^−1 for the DTNB-derived product 3-carboxy-4-nitrothiophenoxide. […]
as §4, with “MMP-14. […]” for “MMP-14.”
as §6

[3] = target: T4, MMP-1FL (full length interstitial collagenase) (Homo sapiens, UniProt P03956); experiment: MMP-1 full-length inhibition (Biological Methods 1, 2, or 5)
T4 sequence (P03956 100-469): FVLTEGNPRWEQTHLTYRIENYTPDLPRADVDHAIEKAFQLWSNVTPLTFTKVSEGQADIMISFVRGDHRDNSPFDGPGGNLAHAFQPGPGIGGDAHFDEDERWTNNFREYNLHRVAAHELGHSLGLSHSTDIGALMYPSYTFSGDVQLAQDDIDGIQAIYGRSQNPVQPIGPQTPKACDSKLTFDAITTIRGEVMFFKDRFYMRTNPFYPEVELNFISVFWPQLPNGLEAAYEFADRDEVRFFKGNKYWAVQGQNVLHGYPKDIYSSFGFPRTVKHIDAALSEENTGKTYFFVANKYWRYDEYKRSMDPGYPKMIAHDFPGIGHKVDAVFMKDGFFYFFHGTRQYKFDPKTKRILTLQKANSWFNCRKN
Experimental: as §7
as §4, with “MMP-14. […]” for “MMP-14.”
as §6

[4] = target: MMP-14CD (catalytic domain of MMP-14) (Homo sapiens, UniProt P50281); experiment: MMP-14 catalytic domain inhibition (Biological Methods 1, 2, or 5)
Experimental: as §1, §2, §3, §4, §5, §6

[5] = target: MMP-3CD (catalytic domain of stromelysin) (Homo sapiens, UniProt P08254); experiment: MMP-3 catalytic domain inhibition (Biological Methods 1, 2, or 5)
MMP-3CD (catalytic domain of stromelysin), sequence (P08254 100-272 limits assumed): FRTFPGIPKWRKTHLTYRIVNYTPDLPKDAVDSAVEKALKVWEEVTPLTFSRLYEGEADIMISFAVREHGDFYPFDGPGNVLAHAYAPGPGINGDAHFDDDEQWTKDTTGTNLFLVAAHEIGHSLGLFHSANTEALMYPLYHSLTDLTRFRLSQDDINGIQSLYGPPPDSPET
Experimental: as §1, §2
It should be appreciated that the assay buffer used with MMP-3CD was 50 mM N-morpholinoethane sulfonate (“MES”) at pH 6.0 rather than the HEPES buffer at pH 7.0 described above.
as §3, §4, §5, §6

MMP-17CD = target: T5, MMP-17CD (Homo sapiens, UniProt Q9ULZ9); experiment: MMP-17 catalytic domain inhibition (Biological Methods 1, 2, or 5)
T5 construct: MMP-17 catalytic domain (“MMP-17CD”)
T5 sequence (Q9ULZ9 126-295 limits assumed): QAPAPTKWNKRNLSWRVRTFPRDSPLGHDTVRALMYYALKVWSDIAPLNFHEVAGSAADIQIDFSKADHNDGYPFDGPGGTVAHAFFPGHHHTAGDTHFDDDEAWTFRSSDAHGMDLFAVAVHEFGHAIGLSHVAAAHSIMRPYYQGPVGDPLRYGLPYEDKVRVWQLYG
Experimental: as §1, §2, §3, §4, §5, §6

[6] = target: MMP-9FL (full length Gelatinase B) (Homo sapiens, UniProt P14780); experiment: MMP-9 full-length inhibition (Biological Methods 1, 2, or 5)
MMP-9FL (full length Gelatinase B), sequence (P14780 94-707): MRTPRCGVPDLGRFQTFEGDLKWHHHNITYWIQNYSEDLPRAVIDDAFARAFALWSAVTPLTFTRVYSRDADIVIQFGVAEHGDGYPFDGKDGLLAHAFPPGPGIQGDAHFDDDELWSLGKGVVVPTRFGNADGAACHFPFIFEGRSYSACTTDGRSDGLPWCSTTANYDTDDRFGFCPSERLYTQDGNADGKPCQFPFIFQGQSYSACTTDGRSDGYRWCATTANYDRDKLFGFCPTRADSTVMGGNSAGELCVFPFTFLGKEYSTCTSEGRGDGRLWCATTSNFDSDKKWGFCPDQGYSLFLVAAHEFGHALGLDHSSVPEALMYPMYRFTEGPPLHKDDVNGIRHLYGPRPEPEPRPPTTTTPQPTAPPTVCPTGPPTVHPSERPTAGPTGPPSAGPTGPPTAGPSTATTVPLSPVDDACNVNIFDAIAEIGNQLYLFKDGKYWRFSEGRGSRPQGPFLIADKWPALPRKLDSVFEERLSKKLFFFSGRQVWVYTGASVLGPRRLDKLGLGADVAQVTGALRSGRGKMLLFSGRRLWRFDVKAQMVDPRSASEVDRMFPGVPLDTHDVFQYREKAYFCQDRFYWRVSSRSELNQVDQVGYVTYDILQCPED
Experimental: as §1, §2, §3, §4, §5, §6

MMP-12CD = target: T6, MMP-12CD (Homo sapiens, UniProt P39900); experiment: MMP-12 catalytic domain inhibition (Biological Methods 1, 2, or 5)
T6 construct: MMP-12 catalytic domain (“MMP-12CD”)
T6 sequence (P39900 106-263 limits assumed): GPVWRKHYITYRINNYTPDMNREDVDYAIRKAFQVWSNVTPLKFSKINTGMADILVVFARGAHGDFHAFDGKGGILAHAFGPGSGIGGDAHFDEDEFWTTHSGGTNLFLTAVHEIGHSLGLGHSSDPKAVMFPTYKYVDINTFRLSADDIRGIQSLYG
Experimental: as §1, §2, §3, §4, §5, §6

T1 sequence (P22894 101-467): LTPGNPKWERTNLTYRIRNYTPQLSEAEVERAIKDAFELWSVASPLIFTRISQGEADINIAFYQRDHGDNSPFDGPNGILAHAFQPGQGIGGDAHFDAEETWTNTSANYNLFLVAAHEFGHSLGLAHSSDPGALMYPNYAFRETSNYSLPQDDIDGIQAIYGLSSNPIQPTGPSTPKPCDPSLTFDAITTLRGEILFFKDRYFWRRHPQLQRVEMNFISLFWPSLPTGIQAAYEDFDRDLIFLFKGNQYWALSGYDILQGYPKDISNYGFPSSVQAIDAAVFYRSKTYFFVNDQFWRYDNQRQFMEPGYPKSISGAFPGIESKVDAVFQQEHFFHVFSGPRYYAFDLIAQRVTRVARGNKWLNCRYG

| Compound | IC50 (MMP-8FL) [µM] | IC50 [1] [µM] | IC50 [2] [µM] | IC50 [3] [µM] | IC50 [4] [µM] | IC50 [5] [µM] | IC50 (MMP-17CD) [µM] | IC50 [6] [µM] | IC50 (MMP-12CD) [µM] |
| --- | --- | --- | --- | --- | --- | --- | --- | --- | --- |
| COc1cccc(CC(=O)Nc2cc3c(=O)n(Cc4ccc(C(=O)O)cc4)cnc3cc2F)c1 [A2] | > 100 | 0.053 | > 100 | > 100 | > 100 | > 100 | > 100 | – | – |
| O=C(Cc1ccc(F)cc1)Nc1ccc2ncn(Cc3ccc(C(=O)O)cc3)c(=O)c2c1 [A4] | > 100 | 0.036 | > 100 | > 100 | > 30 | > 100 | > 100 | > 100 | – |
| O=C(Cc1cccc(F)c1)Nc1ccc2ncn(Cc3ccc(C(=O)O)cc3)c(=O)c2c1 [A5] | > 100 | 0.25 | > 100 | > 100 | > 30 | > 100 | > 100 | > 100 | – |
| COc1ccc(CC(=O)Nc2cc3c(=O)n(Cc4ccc(C(=O)O)cc4)cnc3cc2F)cc1 [A6] | – | 0.0053 | – | – | – | – | – | – | – |
| Cc1ccc(CC(=O)Nc2cc3c(=O)n(Cc4ccc(C(=O)O)cc4)cnc3cc2F)cc1 [A7] | – | 0.1 | – | – | – | – | – | – | – |
| O=C(Cc1ccc(O)cc1)Nc1cc2c(=O)n(Cc3ccc(C(=O)O)cc3)cnc2cc1F [A8] | – | 0.021 | – | – | – | – | – | – | – |
| COc1ccc(CC(=O)Nc2ccc3ccn(Cc4ccc(C(=O)O)cc4)c(=O)c3c2)cc1 [B2] | > 30 | 0.013 | – | – | > 30 | > 65 | > 30 | > 30 | > 30 |
| O=C(Cc1cccc(F)c1)Nc1ccc2ccn(Cc3ccc(C(=O)O)cc3)c(=O)c2c1 [B3] | > 30 | 0.292 | – | – | > 30 | > 65 | > 30 | > 30 | > 30 |
| O=C(Cc1ccc(F)cc1)Nc1ccc2ccn(Cc3ccc(C(=O)O)cc3)c(=O)c2c1 [B4] | > 30 | 0.048 | – | – | > 30 | > 65 | > 30 | > 30 | > 30 |
| COc1cccc(CC(=O)Nc2ccc3ncn(Cc4ccc(C(=O)O)cc4)c(=O)c3c2)c1 [Compound Example A1, 4-{6-[2-(3-Methoxy-phenyl)-acetylamino]-4-oxo-4H-quinazolin-3-ylmethyl}-benzoic acid] | > 30 | 0.038 | – | – | > 30 | > 65 | > 30 | > 30 | > 30 |
| COc1cccc(CC(=O)Nc2ccc3ccn(Cc4ccc(C(=O)O)cc4)c(=O)c3c2)c1 [Compound Example B1, 4-{7-[2-(3-Methoxy-phenyl)-acetylamino]-1-oxo-1H-isoquinolin-2-ylmethyl}-benzoic acid] | > 30 | 0.053 | – | – | > 30 | > 65 | > 30 | > 30 | > 30 |
